In publication PMC7520468, “Salvia ceratophylla L. from South of Jordan: new insights on chemical composition and biological activities” (Natural Products and Bioprospecting, 2020):
Values after ≈ are worked out from the molar mass of the structure shown. Values belong to the compound of their own block, whether it stands above or below them.

What was measured:
[1] = system: L. donovani promastigotes; test: Leishmania donovani promastigote assay (Alamar Blue); format: cell-based; conditions: 72 h, 26 °C, tested concentrations (µg/mL) 20–0.8 extracts, 10–0.4 pure compounds and pentamidine, 2.0–0.08 amphotericin B, NA = not active
Method: (§1) EO and extracts (A-D) at a stock concentration of 20 mg/mL were dilute to 4 mg/mL with DMSO. The obtained solutions (4 mg/mL) were four-fold diluted with incomplete RPMI medium to 1 mg/mL. Pure compounds at a stock concentration of 2 mg/mL in DMSO were diluted four-fold with incomplete RPMI medium to 0.5 mg/mL.
(§2) The extracts and pure compounds (highest concentrations 20 µg/mL for extracts and 10 µg/mL for pure compounds) were subject to different tests, namely Leishmania donovani promastigote assay, L. donovani axenic amastigote assay, L. donovani THP1 macrophage amastigote assay, Trypanosoma brucei trypamastigotes assay and THP1 toxicity assay. Alamar Blue assay was perform as previously described by other authors.
(§3) These assays have been adapted to 384-well micro-plate format. A 3–4 days old culture of Leishmania donovani promastigotes harvested in the exponential growth phase was diluted with RPMI medium to 1 × 10^6 cells/mL for promastigote assays. A 3–4 days old culture of Leishmania donovani axenic amastigotes was diluted with RPMI medium to 2 × 10^6 cells/mL for axenic amastigote assays. A 2 days old culture of Trypanosoma brucei harvested in the exponential phase was diluted with Iscove's Modified Dulbecco's Medium (IMDM) to 5 × 10^3 cells/mL for the antitrypanosomal assay.
(§4) Samples were added to the L. donovani promastigotes, L. donovani axenic amastigotes or T. brucei trypamastigotes cultures. The extracts were initially test at single concentrations of […] for primary screening. The active extracts and pure compounds were test at three or six concentrations ranging from 10 to 0.0032 µg/mL. The plates were incubated at 26 °C for 72 h (37 °C for axenic amastigotes and T. brucei trypamastigotes) and growth of cultured parasites was determined by the Alamar Blue assay [32 33].

[2] = system: L. donovani axenic amastigotes; test: L. donovani axenic amastigote assay (Alamar Blue); format: cell-based; conditions: Leishmania donovani; first Amastigote column; 72 h, 37 °C; tested concentrations (µg/mL) 20–0.8 extracts, 10–0.4 pure compounds and pentamidine, 2.0–0.08 amphotericin B; NA = not active
Method: as §1, §2
These assays have been adapted to 384-well micro-plate format. A 3–4 days old culture of Leishmania donovani promastigotes harvested in the exponential growth phase was diluted with RPMI medium to 1 × 10^6 cells/mL for promastigote assays. […]
Samples were added to the L. donovani promastigotes, L. donovani axenic amastigotes or T. brucei trypamastigotes cultures. […] The plates were incubated at 26 °C for 72 h (37 °C for axenic amastigotes and T. brucei trypamastigotes) and growth of cultured parasites was determined by the Alamar Blue assay [32 33].

[3] = system: NF-κB; test: Inhibition of NF-κB activity, luciferase reporter in SW 1353 cells; format: cell-based; conditions: Homo sapiens, SW1353; SW 1353, PMA 70 ng/mL, 8 h; NA = not active at tested concentration
Method: The inhibition activity of tested samples against NF-κB was evaluate as described. The SW 1353 human chondrosarcoma cell line was culture in a mixture of Dulbecco's Modified Eagle's Medium (DMEM) and Ham's F-12 Nutrient (DMEM/F12) supplemented with 10% FBS, 100 U/Ml penicillin and 100 µg/mL streptomycin. Cultured cells were washed in antibiotic and FBS-free DMEM/F12 medium and then re-suspended in FBS-free DMEM/F12 medium containing 2.5% FBS. NF-κB luciferase plasmid construct was added to the cell suspension in a concentration of 50 µg/mL and incubated for 5 min at 25 °C. The cells were transfected by electroporation at 160 V and one 70 ms pulse using BTX disposable cuvettes (model 640 in a BTX Electro Square Porator T 820—BTX I, San Diego, CA, USA), Transfected cells were plate in 96-well plates at a density of 1.25 × 10^5cells per well in 200 µL of DMEM/F12 containing 10% FBS and antibiotics. After incubation for 24 h, the cells were treated with test samples for 30 min and then induced with PMA (70 ng/mL) for 8 h. The inhibition of NF-κB activity by EO, other extracts, and pure compounds was calculated in comparison to vehicle control. The IC50 values were obtain from the dose curves. Parthenolide was use as positive control.

[4] = system: T. brucei trypamastigotes; test: Trypanosoma brucei trypamastigotes assay (Alamar Blue); format: cell-based; conditions: 72 h, 37 °C, tested concentrations (µg/mL) 20–0.8 extracts and DFMO, 10–0.4 pure compounds, NA = not active
Method: as §1, §2, §3, §4

[5] = system: T. brucei brucei blood stream forms; design: method as in PMID 16557466; conditions: cited from earlier work
[6] = system: human HepG2 hepatoma cells; test: Inhibition of cellular oxidative stress assay (ABAP, DCFH-DA); format: cell-based
Method: The cellular antioxidant activity of S. ceratophylla EO and other extracts was measured in human HepG2 hepatoma cells This assay determines the ability of test samples to prevent intracellular generation of peroxyl radicals in response to 2,2- azobis (2-amidinopropane) dihydrochloride (ABAP, Sigma-Aldrich, St Louis, MO, USA).
HepG2 cells were culture in Dulbecco's Modified Eagle Medium (DMEM) supplemented with 10% fetal bovine serum (FBS), 50 units/mL penicillin and 50 µg/mL streptomycin. Cells were seed in 96-well plates (60,000 cells/well) and incubated for 24 h. The tested samples were diluted in serum free medium containing 25 µM 2^′,7′, dichoroflouresceine diacetate (DCFH-DA, Invitrogen, Carlsbad, CA, USA). The cells were wash with PBS and treated with test samples during 1 h. The medium containing tested samples was removed, ABAP (600 µM) was added and the plate was immediately placed on a Spectra Max plate reader for kinetic reading every 5 min during 1 h (37 °C, emission at 538 nm and excitation at 485 nm). Quercetin (Sigma-Aldrich) was use as positive control. To calculate the percentage of decrease in oxidative stress, the Area Under the Curve (AUC) of fluorescence versus time was used. Decrease in oxidative stress%=AUC control^100-[AUC tested sample×100]

[7] = system: transcription factor Sp-1; test: Sp-1 inhibition; format: cell-based; conditions: NA = not active at tested concentration
[8] = system: NO production in mouse macrophage cells (RAW 264.7); test: Nitric oxide (NO) measurement, LPS-stimulated macrophages, Griess reagent; format: cell-based; conditions: RAW264.7, RAW 264.7, LPS 5 µg/mL, 24 h, NA = not active at tested concentration, read-out: NO inhibition IC50
Method: The NO inhibition by EO, extracts of S. ceratophylla and pure compounds, was assess by the following methodology. Briefly, mouse macrophage cells (RAW 264.7) were culture in phenol red free RPMI medium with 10% bovine calf serum and 100 U/mL penicillin and 100 µg/mL streptomycin.
Cells were seed in 96-well plates (50,000 cells/well) and incubated during 24 h. The tested samples were dilute in serum free medium, incubated during 30 min, then lipopolysaccharide (LPS, 5 µg/mL) was added and cells were incubated for further 24 h. The level of nitrite in the cell supernatant was measure by using Griess reagent. The inhibition of nitrite production by the tested samples was calculate in comparison to the vehicle control. Parthenolide (Sigma-Aldrich) was use as positive control. IC50 values were obtain from dose curves.

[9] = system: several cancer cell lines; design: method as in earlier work; conditions: up to a concentration of 200 μg/mL; cited from earlier work
[10] = system: carrageenin-induced hind paw edema; design: method as in PMID 23334570; conditions: dose of 25 mg/kg, p = 0.03; cited from earlier work
[11] = system: L. amazonensis promastigotes; design: method as in PMID 12760864; conditions: cited from earlier work
[12] = system: differentiated THP1 cells; test: THP1 toxicity assay (Alamar Blue); format: cell-based; conditions: Homo sapiens, THP-1; 48 h; tested concentrations (µg/mL) 20–0.8 extracts, 10–0.4 pure compounds and pentamidine, 2.0–0.08 amphotericin B; NA = not active
Method: Alamar Blue assay was perform as previously described by other authors. […] PMA was added to a final concentration of 25 ng/mL. A PMA treated culture was dispense in experimental culture plates and incubated overnight at 37 °C in a 5% CO2 incubator. The plates with differentiated THP1 cells were wash with serum-free medium. For THP1 toxicity assay, the diluted test samples (extracts or pure compounds) were add over differentiated THP1 cells and plates were incubated during 48 h at 37 °C in a 5% CO2 incubator. Cell growth was determined by the Alamar Blue assay.

[13] = system: skin malignant melanoma (SK-MEL); test: Cytotoxic activity, Neutral Red assay, SK-MEL; format: cell-based; conditions: Homo sapiens; 48 h; NA = not active at 10 µg/mL for pure compound, at 100 µg/mL for extracts
Method: (§5) All cell lines used in this study were purchase from American Type Culture Collection (ATCC, Rockville, MD). The cytotoxic activity of the EO, extracts isolated from S. ceratophylla and pure compounds was determined in vitro against various human cancer cells: skin malignant melanoma (SK-MEL), human KB carcinoma (KB), breast ductal carcinoma (BT-549), ovarian carcinoma (SK-OV-3), and in two non-cancerous mammalian kidney cell lines (LLC-PK1 and VERO). Cells were seed at a density of 25,000 cells/well and incubated during 24 h. The tested EO, extracts and pure compounds were added separately at studied concentrations and cells were re-incubated during 48 h. After incubation time, the viability of cells was assessed by using Neutral Red Dye as described. DMSO was use as negative control and doxorubicin as positive control.

[14] = system: human KB carcinoma (KB); test: Cytotoxic activity, Neutral Red assay, KB; format: cell-based; conditions: 48 h, NA = not active at 10 µg/mL for pure compound, at 100 µg/mL for extracts
Method: as §5

[15] = system: breast ductal carcinoma (BT-549); test: Cytotoxic activity, Neutral Red assay, BT-549; format: cell-based; conditions: Homo sapiens, 48 h, NA = not active at 10 µg/mL for pure compound, at 100 µg/mL for extracts
Method: as §5

[16] = system: ovarian carcinoma (SK-OV-3); test: Cytotoxic activity, Neutral Red assay, SK-OV-3; format: cell-based; conditions: Homo sapiens, 48 h, NA = not active at 10 µg/mL for pure compound, at 100 µg/mL for extracts
Method: as §5

[17] = Cytotoxic activity, Neutral Red assay, LLC-PK1; format: cell-based; conditions: pig, LLC-PK1 kidney epithelial cells (non-cancerous), NA = not active at 10 µg/mL for pure compound, at 100 µg/mL for extracts
Method: as §5

[18] = Cytotoxic activity, Neutral Red assay, Vero; format: cell-based; conditions: African green monkey, Vero kidney fibroblast cells (non-cancerous), NA = not active at 10 µg/mL for pure compound, at 100 µg/mL for extracts
Method: as §5

[19] = compounds of Strychnos spinosa EO

SMILES: C=CC(C)(O)CCC=C(C)CCC=C(C)C (mixture of isomers) [nerolidol]
IC50 towards Trypanosoma [5, 19]: 1.7 µg/mL
selectivity index (SI) towards Trypanosoma [5, 19]: 35.7

SMILES: O=c1c(O)c(-c2ccc(O)c(O)c2)oc2cc(O)cc(O)c12 [Quercetin]
% decrease in oxidative stress ([6]; 25 µM, positive control): 75%

SMILES: C=CC(C)(O)CCC=C(C)C (stereo not drawn) [Linalool]
IC50 [8]: 18 µg/mL (≈ 117 µM)
cytotoxic activity against several cancer cell lines [9]: did not exhibit cytotoxic activity
inhibition of carrageenin-induced hind paw edema [10]: 55%
MIC, viability of L. amazonensis promastigotes [11]: 0.085 ng/mL
IC50 towards Trypanosoma [5, 19]: 2.5 µg/mL (≈ 16.2 µM)

SMILES: COc1cccc2c1C(=O)c1c(O)c3c(c(O)c1C2=O)C[C@@](O)(C(=O)CO)C[C@@H]3O[C@H]1C[C@H](N)[C@H](O)[C@H](C)O1 [Doxorubicin]
IC50 [13]: 0.8 µg/mL (≈ 1.47 µM)
IC50 [14]: 1.4 µg/mL (≈ 2.58 µM)
IC50 [15]: 0.85 µg/mL (≈ 1.56 µM)
IC50 [16]: 2 µg/mL (≈ 3.68 µM)
IC50 at 48 h [17]: 1.2 µg/mL (≈ 2.21 µM)
IC50 at 48 h [18]: > 5 µg/mL

SMILES: NCCC[C@](N)(C(=O)O)C(F)F [α-difluoromethylornithine]
T. brucei IC50 [4]: 4.792 µg/mL
T. brucei IC90 [4]: 7.760 µg/mL

Now from value to compound, other results behind:

IC50 [1]: 0.14 µg/mL (≈ 0.152 µM)
IC90 [1]: 0.324 µg/mL (≈ 0.351 µM)
IC50 [2]: 0.181 µg/mL (≈ 0.196 µM)
SMILES: C[C@@H]1[C@H](O)[C@@H](C)/C=C/C=C/C=C/C=C/C=C/C=C/C=C/[C@H](O[C@@H]2O[C@H](C)[C@@H](O)[C@H](N)[C@@H]2O)C[C@@H]2O[C@](O)(C[C@@H](O)C[C@@H](O)[C@H](O)CC[C@@H](O)C[C@@H](O)CC(=O)O[C@H]1C)C[C@H](O)[C@H]2C(=O)O [Amphotericin B]

IC50 [3]: 100 µg/mL (≈ 648 µM)
IC50 ([4]; Trypanosoma brucei): 6.04 µg/mL (≈ 39.2 µM)
IC90 ([4]; Trypanosoma brucei): 8.22 µg/mL (≈ 53.3 µM)
SMILES: CC1=CC[C@@H](C(C)(C)O)CC1 [α-Terpineol]
activity against T. brucei brucei blood stream forms [5]: slightly active

IC50 [3]: 45 µg/mL (≈ 220 µM)
IC50 [7]: 48 µg/mL (≈ 235 µM)
SMILES: C=C1CC/C=C(\C)CC[C@@H]2[C@@H]1CC2(C)C [Caryophyllene, (-)trans-Caryophyllene]
% decrease in oxidative stress ([6]; 250 µg/mL, pure compounds, NA = not active at tested concentration): 31%
% decrease in oxidative stress ([6]; 500 µg/mL, pure compounds, NA = not active at tested concentration): 35%

IC50 [1]: 1.02 µg/mL (≈ 3.01 µM)
IC90 [1]: 9.28 µg/mL (≈ 27.3 µM)
IC50 [2]: 3.8 µg/mL (≈ 11.2 µM)
SMILES: N=C(N)c1ccc(OCCCCCOc2ccc(C(=N)N)cc2)cc1 [Pentamidine]
IC90 [12]: 1.74 µg/mL (≈ 5.1 µM)

IC50 [3]: 0.33 µg/mL (≈ 1.33 µM)
SMILES: C=C1C(=O)O[C@H]2[C@H]1CC/C(C)=C/CC[C@@]1(C)O[C@@H]21 [Parthenolide]
IC50 [8]: 0.48 µg/mL (≈ 1.93 µM)
